Like-named read-outs stand apart in the source and are kept apart here. Where a SMILES comes first, the peptide text is derived from it.
Experiments:
[1] = system: Klebsiella pneumoniae ATCC 13883; type: cell-based
Protocol: (§1) Stock solutions were kept at +4° C., light protected.
(§2) The selective antimicrobial activities of the peptides were determined in 96-well plates (Greiner, polystyrene) by the standard NCCLS broth microdilution method (National Committee for Clinical Laboratory Standards 1993. Methods for dilution antimicrobial susceptibility tests for bacteria that grow aerobically, 3rd ed. Approved standard M7-A6; National Committee for Clinical laboratory standards, Wayne, Pa.) with slight modifications. Inocula of the microorganisms were diluted into Mueller-Hinton II (MH, cation adjusted) broth and compared with a 0.5 McFarland standard to give appr. 10^6 colony forming units (CFU)/mL. Aliquots (90 μl) of inoculate were added to 10 μl of MH broth+P-80 (Polysorbate 80, 0.002% final concentration) containing the peptide in serial two-fold dilutions. The following microorganisms were used to determine antibiotic selectivity of the peptides: Escherichia coli ATCC 25922, Klebsiella pneumoniae ATCC 13883 and Acinetobacter baumannii DSM 30008.

[2] = system: Acinetobacter baumannii DSM 30008; type: cell-based
Protocol: as §1, §2

[3] = system: Escherichia coli ATCC 25922; type: cell-based
Protocol: as §1, §2

[4] = system: human red blood cells (hRBC); test: Hemolysis: hemolytic activity at 100 μg/mL, 1 h at 37° C.
Protocol: Lyophilized peptides were weighed on a Microbalance (Mettler MT5) and dissolved in sterile water to a final concentration of 1 mg/mL. Stock solutions were kept at +4° C., light protected.
The peptides were tested for their hemolytic activity against human red blood cells (hRBC). Fresh hRBC were washed three times with phosphate buffered saline (PBS) and centrifuged for 5 min at 3000×g. Compounds (100 μg/mL) were incubated with 20% hRBC (v/v) for 1 h at 37° C. and shaking at 300 rpm. The final erythrocyte concentration was approximately 0.9×10^9 cells/mL. A value of 0% and 100% cell lyses, respectively, was determined by incubation of hRBC in the presence of PBS containing 0.001% acetic acid and 2.5% Triton X-100 in H2O, respectively. The samples were centrifuged, the supernatants were 8-fold diluted in PBS buffer and the optical densities (OD) were measured at 540 nm.
Percent hemolysis was calculated as follows: (OD540peptide/OD540H2O)×100%.

[5] = Mueller-Hinton II broth, 18-20 hours at 35° C.

SMILES	Klebsiella pneumoniae ATCC 13883 MIC ([1]; ATCC 13883) [µg/mL]	Acinetobacter baumannii DSM 30008 MIC ([2]; DSM 30008) [µg/mL]	Escherichia coli ATCC 25922 MIC ([3]; ATCC 25922) [µg/mL]	Hemolysis at 100 μg/mL ([4]; red cells of human, 1 h, 100) [%]	Klebsiella pneumoniae ATCC 13883 MIC [1, 5] [µg/mL]	Acinetobacter baumannii DSM 30008 MIC [2, 5] [µg/mL]	Escherichia coli ATCC 25922 MIC [3, 5] [µg/mL]	Hemolysis at 100 μg/mL ([4]; 100 μg/mL, 20% hRBC, 1 h at 37° C.) [%]
CC(C)C[C@@H]1NC(=O)[C@H](CCCNC(=N)N)NC(=O)[C@@H](CCN)NC(=O)[C@H](C(C)C)NC(=O)[C@@H]2CSSC[C@H](NC1=O)C(=O)N[C@@H](Cc1ccc(O)cc1)C(=O)N[C@@H](C)C(=O)N[C@@H](CCCN)C(=O)N[C@H](CCN)C(=O)N[C@@H](CCN)C(=O)N[C@@H](Cc1ccccc1)C(=O)N[C@@H](C)C(=O)N[C@@H](Cc1ccc(O)cc1)C(=O)N2 [Example 19, cyclo(-Leu-Cys-Tyr-Ala-Orn-^DDab-Dab-Phe-Ala-Tyr-Cys-Val-^DDab-Arg-)] (HELM PEPTIDE1{A.[Orn].[NCC[C@@H](N[*:1])C(=O)[*:2]].[Dab].F.A.Y.C.V.[NCC[C@@H](N[*:1])C(=O)[*:2]].R.L.C.Y}$PEPTIDE1,PEPTIDE1,8:R3-13:R3|PEPTIDE1,PEPTIDE1,1:R1-14:R2$$$V2.0)	1	1	0.5	1	–	–	–	–
CC(C)C[C@@H]1NC(=O)[C@H](CCCNC(=N)N)NC(=O)[C@@H](CCN)NC(=O)[C@H](C(C)C)NC(=O)[C@@H]2CSSC[C@H](NC1=O)C(=O)N[C@@H](C(C)C)C(=O)N[C@@H](C(C)C)C(=O)N[C@@H](CCCN)C(=O)N[C@H](CCN)C(=O)N[C@@H](CCN)C(=O)N[C@@H](Cc1c[nH]c3ccccc13)C(=O)N[C@@H](Cc1ccc(O)cc1)C(=O)N[C@@H](Cc1ccc(O)cc1)C(=O)N2 [Example 20, cyclo(-Leu-Cys-Val-Val-Orn-^DDab-Dab-Trp-Tyr-Tyr-Cys-Val-^DDab-Arg-)] (HELM PEPTIDE1{C.V.V.[Orn].[NCC[C@@H](N[*:1])C(=O)[*:2]].[Dab].W.Y.Y.C.V.[NCC[C@@H](N[*:1])C(=O)[*:2]].R.L}$PEPTIDE1,PEPTIDE1,1:R3-10:R3|PEPTIDE1,PEPTIDE1,1:R1-14:R2$$$V2.0)	1	0.25	1	7	–	–	–	–
CC(C)C[C@@H]1NC(=O)[C@H](CCCNC(=N)N)NC(=O)[C@@H](CCN)NC(=O)[C@H](C(C)C)NC(=O)[C@@H]2CSSC[C@H](NC1=O)C(=O)N[C@@H](Cc1ccc(O)cc1)C(=O)N[C@@H](C(C)C)C(=O)N[C@@H](CCCN)C(=O)N[C@H](CCN)C(=O)N[C@@H](CCN)C(=O)N[C@@H](Cc1c[nH]c3ccccc13)C(=O)N[C@@H](Cc1ccc(O)cc1)C(=O)N[C@@H](Cc1ccc(O)cc1)C(=O)N2 [Example 21, cyclo(-Leu-Cys-Tyr-Val-Orn-^DDab-Dab-Trp-Tyr-Tyr-Cys-Val-^DDab-Arg-)] (HELM PEPTIDE1{C.V.[NCC[C@@H](N[*:1])C(=O)[*:2]].R.L.C.Y.V.[Orn].[NCC[C@@H](N[*:1])C(=O)[*:2]].[Dab].W.Y.Y}$PEPTIDE1,PEPTIDE1,1:R3-6:R3|PEPTIDE1,PEPTIDE1,1:R1-14:R2$$$V2.0)	1	0.5	1	6	–	–	–	–
CC(C)C[C@@H]1NC(=O)[C@H](CCCNC(=N)N)NC(=O)[C@@H](CCN)NC(=O)[C@H](Cc2ccc(O)cc2)NC(=O)[C@@H]2CSSC[C@H](NC1=O)C(=O)N[C@@H](Cc1ccc(O)cc1)C(=O)N[C@@H](C(C)C)C(=O)N[C@@H](CCCN)C(=O)N[C@H](CCN)C(=O)N[C@@H](CCN)C(=O)N[C@@H](Cc1c[nH]c3ccccc13)C(=O)N[C@@H](Cc1ccc(O)cc1)C(=O)N[C@@H](Cc1ccc(O)cc1)C(=O)N2 [Example 22, cyclo(-Leu-Cys-Tyr-Val-Orn-^DDab-Dab-Trp-Tyr-Tyr-Cys-Tyr-^DDab-Arg-)] (HELM PEPTIDE1{C.Y.V.[Orn].[NCC[C@@H](N[*:1])C(=O)[*:2]].[Dab].W.Y.Y.C.Y.[NCC[C@@H](N[*:1])C(=O)[*:2]].R.L}$PEPTIDE1,PEPTIDE1,1:R3-10:R3|PEPTIDE1,PEPTIDE1,1:R1-14:R2$$$V2.0)	1	0.5	0.5	6	–	–	–	–
CC(C)C[C@@H]1NC(=O)[C@H](CCCNC(=N)N)NC(=O)[C@@H](CCN)NC(=O)[C@H](C(C)C)NC(=O)[C@@H]2CSSC[C@H](NC1=O)C(=O)N[C@@H](Cc1ccc(O)cc1)C(=O)N[C@@H](C)C(=O)N[C@@H](CCCN)C(=O)N[C@H](CCN)C(=O)N[C@@H](CCN)C(=O)N[C@@H](Cc1c[nH]c3ccccc13)C(=O)N[C@@H](C)C(=O)N[C@@H](Cc1ccc(O)cc1)C(=O)N2 [Example 23, cyclo(-Leu-Cys-Tyr-Ala-Orn-^DDab-Dab-Trp-Ala-Tyr-Cys-Val-^DDab-Arg-)] (HELM PEPTIDE1{A.[Orn].[NCC[C@@H](N[*:1])C(=O)[*:2]].[Dab].W.A.Y.C.V.[NCC[C@@H](N[*:1])C(=O)[*:2]].R.L.C.Y}$PEPTIDE1,PEPTIDE1,8:R3-13:R3|PEPTIDE1,PEPTIDE1,1:R1-14:R2$$$V2.0)	1	0.75	2	1	–	–	–	–
CC(C)[C@@H]1NC(=O)[C@@H]2CSSC[C@H](NC(=O)[C@H](Cc3ccc(O)cc3)NC(=O)[C@H]([C@@H](C)O)NC(=O)[C@H](Cc3c[nH]c4ccccc34)NC(=O)[C@H](CCN)NC(=O)[C@@H](CCN)NC(=O)[C@H](CCCN)NC(=O)[C@H]([C@@H](C)O)NC1=O)C(=O)N[C@@H](CCN)C(=O)N[C@H](CCN)C(=O)N[C@@H](CCCNC(=N)N)C(=O)N[C@@H](Cc1ccccc1)C(=O)N2 [Example 24, cyclo(-Phe-Cys-Val-Thr-Orn-^DDab-Dab-Trp-Thr-Tyr-Cys-Dab-^DDab-Arg-)] (HELM PEPTIDE1{C.[Dab].[NCC[C@@H](N[*:1])C(=O)[*:2]].R.F.C.V.T.[Orn].[NCC[C@@H](N[*:1])C(=O)[*:2]].[Dab].W.T.Y}$PEPTIDE1,PEPTIDE1,1:R3-6:R3|PEPTIDE1,PEPTIDE1,1:R1-14:R2$$$V2.0)	–	–	–	–	2	2	1	0
CC(C)C[C@@H]1NC(=O)[C@H](CCCNC(=N)N)NC(=O)[C@@H](CCN)NC(=O)[C@H](C(C)C)NC(=O)[C@@H]2CSSC[C@H](NC1=O)C(=O)N[C@@H](C(C)C)C(=O)N[C@@H]([C@@H](C)O)C(=O)N[C@@H](CCCN)C(=O)N[C@H](CCN)C(=O)N[C@@H](CCN)C(=O)N[C@@H](Cc1c[nH]c3ccccc13)C(=O)N[C@@H]([C@@H](C)O)C(=O)N[C@@H](Cc1ccc(O)cc1)C(=O)N2 [Example 25, cyclo(-Leu-Cys-Val-Thr-Orn-^DDab-Dab-Trp-Thr-Tyr-Cys-Val-^DDab-Arg-)] (HELM PEPTIDE1{C.V.T.[Orn].[NCC[C@@H](N[*:1])C(=O)[*:2]].[Dab].W.T.Y.C.V.[NCC[C@@H](N[*:1])C(=O)[*:2]].R.L}$PEPTIDE1,PEPTIDE1,1:R3-10:R3|PEPTIDE1,PEPTIDE1,1:R1-14:R2$$$V2.0)	1	0.25	1	3	–	–	–	–

Reference: patent US11753446B2, “Beta-hairpin peptidomimetics” (POLYPHOR AG, priority 2014, dated 2023)
